Measured values taken from ChEMBL document CHEMBL1201862, “PubChem BioAssay data set” (2004).
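Cells were grown in 96-well plates and exposed to each compound for 48 hours at five concentrations; endpoints were interpolated linearly between bracketing concentrations, or set to the highest concentration if not reached. GI50: concentration for 50% inhibition of growth.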 The source made the active and inactive calls. Rule as the data show it: active = GI50 up to about 1.1 µM and inactive = higher.

Columns and labels:
Experiment in all cases: DTP human tumour cell line panel, 48 h
BT-549 = system: BT-549
HL-60 = system: HL-60
A498 = system: A498
LOX IMVI = system: LOX IMVI
SK-MEL-28 = system: SK-MEL-28
NCI-H522 = system: NCI-H522
ACHN = system: ACHN
DU-145 = system: DU-145
MDA-MB-435 = system: MDA-MB-435
HCT-116 = system: HCT-116
UACC-62 = system: UACC-62
OVCAR-3 = system: OVCAR-3
NCI-H23 = system: NCI-H23
SF-295 = system: SF-295
SF-268 = system: SF-268
UACC-257 = system: UACC-257
Malme-3M = system: Malme-3M
OVCAR-4 = system: OVCAR-4
MOLT-4 = system: MOLT-4
EKVX = system: EKVX
T47D = system: T47D
CAKI-1 = system: CAKI-1
RPMI-8226 = system: RPMI-8226
OVCAR-8 = system: OVCAR-8
Hs-578T = system: Hs-578T
CCRF-CEM = system: CCRF-CEM
HCT-15 = system: HCT-15
MDA-MB-231 = system: MDA-MB-231
COLO 205 = system: COLO 205
TK-10 = system: TK-10
NCI/ADR-RES = system: NCI/ADR-RES
MDA-N = system: MDA-N
HOP-62 = system: HOP-62
SF-539 = system: SF-539
UO-31 = system: UO-31
SNB-19 = system: SNB-19
SN12C = system: SN12C
SR = system: SR
OVCAR-5 = system: OVCAR-5
786-0 = system: 786-0
MCF7 = system: MCF7
M14 = system: M14
IGROV-1 = system: IGROV-1
HCC 2998 = system: HCC 2998
HT-29 = system: HT-29
SNB-75 = system: SNB-75
A549 = system: A549
K562 = system: K562
RXF 393 = system: RXF 393
SK-OV-3 = system: SK-OV-3
KM12 = system: KM12
NCI-H460 = system: NCI-H460
NCI-H226 = system: NCI-H226
U-251 = system: U-251
SW-620 = system: SW-620
PC-3 = system: PC-3
SK-MEL-5 = system: SK-MEL-5
HOP-92 = system: HOP-92
SK-MEL-2 = system: SK-MEL-2

With `Oc1c(Cl)ccc2cccnc12` the GI50 (BT-549) was 15.5 µM (inactive), the GI50 (HL-60) was 0.28 µM (active) and the GI50 (A498) was 4.81 µM (inactive). For the same compound, the GI50 (LOX IMVI) was 1.94 µM (inactive), the GI50 (SK-MEL-28) was 22.8 µM (inactive) and the GI50 (NCI-H522) was 1.63 µM (inactive). For the same compound, the GI50 (ACHN) was 3.61 µM (inactive), the GI50 (DU-145) was 9.73 µM (inactive) and the GI50 (MDA-MB-435) was 10.1 µM (inactive). For the same compound, the GI50 (HCT-116) was 1.79 µM (inactive), the GI50 (UACC-62) was 2.24 µM (inactive) and the GI50 (OVCAR-3) was 2.09 µM (inactive). The GI50 (NCI-H23) was 5.06 µM (inactive), the GI50 (SF-295) was 2.79 µM (inactive) and the GI50 (SF-268) was 2.72 µM (inactive). The GI50 (UACC-257) was 6.03 µM (inactive), the GI50 (Malme-3M) was 8.89 µM (inactive) and the GI50 (OVCAR-4) was 3.21 µM (inactive). The GI50 (MOLT-4) was 1.84 µM (inactive), the GI50 (EKVX) was 3.43 µM (inactive) and the GI50 (T47D) was 1.2 µM (inactive). For the same compound, the GI50 (CAKI-1) was 3.25 µM (inactive), the GI50 (RPMI-8226) was 2.71 µM (inactive) and the GI50 (OVCAR-8) was 2.63 µM (inactive). For the same compound, the GI50 (Hs-578T) was 4.32 µM (inactive), the GI50 (CCRF-CEM) was 0.347 µM (active) and the GI50 (HCT-15) was 0.927 µM. For the same compound, the GI50 (MDA-MB-231) was 3.76 µM (inactive), the GI50 (COLO 205) was 4.25 µM (inactive) and the GI50 (TK-10) was 4.36 µM (inactive). For the same compound, the GI50 (NCI/ADR-RES) was 0.432 µM (active), the GI50 (MDA-N) was 16.6 µM (inactive) and the GI50 (HOP-62) was 3.75 µM (inactive). For the same compound, the GI50 (SF-539) was 3.4 µM (inactive), the GI50 (UO-31) was 3.35 µM (inactive) and the GI50 (SNB-19) was 13.3 µM (inactive). For the same compound, the GI50 (SN12C) was 4.58 µM (inactive), the GI50 (SR) was 1.88 µM (inactive) and the GI50 (OVCAR-5) was 5.87 µM (inactive). For the same compound, the GI50 (786-0) was 6.18 µM (inactive), the GI50 (MCF7) was 1.02 µM (active) and the GI50 (M14) was 3 µM (inactive). For the same compound, the GI50 (IGROV-1) was 0.223 µM (active), the GI50 (HCC 2998) was 12.7 µM (inactive) and the GI50 (HT-29) was 18.4 µM (inactive). For the same compound, the GI50 (SNB-75) was 11.6 µM (inactive), the GI50 (A549) was 3.96 µM (inactive) and the GI50 (K562) was 1.32 µM (inactive). For the same compound, the GI50 (RXF 393) was 1.83 µM (inactive), the GI50 (SK-OV-3) was 4.71 µM (inactive) and the GI50 (KM12) was 4.88 µM (inactive). For the same compound, the GI50 (NCI-H460) was 3.4 µM (inactive), the GI50 (NCI-H226) was 5.12 µM (inactive) and the GI50 (U-251) was 3.69 µM (inactive). The GI50 (SW-620) was 2.53 µM (inactive), the GI50 (PC-3) was 4.71 µM (inactive) and the GI50 (SK-MEL-5) was 3.42 µM (inactive). For the same compound, the GI50 (HOP-92) was < 0.01 µM (active).
`Cn1c(=O)c2sc3c4sc5c(=O)n(C)c6ccccc6c5c4sc3c2c2ccccc21` was tested, and the GI50 (BT-549) was > 100 µM (inactive), the GI50 (HL-60) was > 100 µM (inactive) and the GI50 (A498) was > 100 µM (inactive). For the same compound, the GI50 (SK-MEL-28) was > 100 µM (inactive), the GI50 (NCI-H522) was > 100 µM (inactive) and the GI50 (ACHN) was 48.1 µM (inactive). For the same compound, the GI50 (DU-145) was > 100 µM (inactive), the GI50 (MDA-MB-435) was > 100 µM (inactive) and the GI50 (HCT-116) was > 100 µM (inactive). For the same compound, the GI50 (UACC-62) was > 100 µM (inactive), the GI50 (OVCAR-3) was > 100 µM (inactive) and the GI50 (NCI-H23) was > 100 µM (inactive). For the same compound, the GI50 (SF-268) was > 100 µM (inactive), the GI50 (UACC-257) was > 100 µM (inactive) and the GI50 (SK-MEL-2) was > 100 µM (inactive). For the same compound, the GI50 (Malme-3M) was > 100 µM (inactive), the GI50 (OVCAR-4) was 98.9 µM (inactive) and the GI50 (MOLT-4) was > 100 µM (inactive). For the same compound, the GI50 (EKVX) was > 100 µM (inactive), the GI50 (T47D) was > 100 µM (inactive) and the GI50 (CAKI-1) was > 100 µM (inactive). For the same compound, the GI50 (RPMI-8226) was > 100 µM (inactive), the GI50 (OVCAR-8) was > 100 µM (inactive) and the GI50 (Hs-578T) was 56.5 µM (inactive). For the same compound, the GI50 (CCRF-CEM) was > 100 µM (inactive), the GI50 (HCT-15) was over 100 µM and the GI50 (MDA-MB-231) was 31.5 µM (inactive). For the same compound, the GI50 (COLO 205) was > 100 µM (inactive), the GI50 (TK-10) was > 100 µM (inactive) and the GI50 (NCI/ADR-RES) was > 100 µM (inactive). For the same compound, the GI50 (MDA-N) was > 100 µM (inactive), the GI50 (HOP-62) was 46.5 µM (inactive) and the GI50 (SF-539) was > 100 µM (inactive). For the same compound, the GI50 (UO-31) was > 100 µM (inactive), the GI50 (SNB-19) was 22.4 µM (inactive) and the GI50 (SN12C) was > 100 µM (inactive). For the same compound, the GI50 (SR) was 66.4 µM (inactive), the GI50 (OVCAR-5) was > 100 µM (inactive) and the GI50 (786-0) was 38.1 µM (inactive). The GI50 (MCF7) was > 100 µM (inactive), the GI50 (M14) was > 100 µM (inactive) and the GI50 (IGROV-1) was > 100 µM (inactive). For the same compound, the GI50 (HCC 2998) was > 100 µM (inactive), the GI50 (HT-29) was > 100 µM (inactive) and the GI50 (SNB-75) was 42.6 µM (inactive). The GI50 (A549) was > 100 µM (inactive), the GI50 (K562) was > 100 µM (inactive) and the GI50 (RXF 393) was 12.6 µM (inactive). The GI50 (SK-OV-3) was > 100 µM (inactive), the GI50 (KM12) was > 100 µM (inactive) and the GI50 (NCI-H460) was > 100 µM (inactive). For the same compound, the GI50 (NCI-H226) was > 100 µM (inactive), the GI50 (U-251) was 47.5 µM (inactive) and the GI50 (SW-620) was > 100 µM (inactive). For the same compound, the GI50 (PC-3) was > 100 µM (inactive), the GI50 (SK-MEL-5) was > 100 µM (inactive) and the GI50 (HOP-92) was 90.8 µM (inactive).
